System: skin
Test: Cumulative skin irritation test, HRIPT (human repeated insult patch test)
Type: in vivo
Parameters: key to skin reactivity (ICDRG criteria): −: Negative (no reaction); ±: Suspicious or slight erythema, etc.; +: Weak reaction (not accompanied by vesicles), erythema, papules; ++: Severe reaction (accompanied by vesicles), erythema, papules, vesicles; +++: Strong reaction, bullae
Conditions: for Number of subjects showing ±, + or ++ reactivity 1st: 1st patch; for Number of subjects showing ±, + or ++ reactivity 2nd: 2nd patch; for Number of subjects showing ±, + or ++ reactivity 3rd: 3rd patch; for Number of subjects showing ±, + or ++ reactivity 4th: 4th patch; for Number of subjects showing ±, + or ++ reactivity 5th: 5th patch; for Number of subjects showing ±, + or ++ reactivity 6th: 6th patch; for Number of subjects showing ±, + or ++ reactivity 7th: 7th patch; for Number of subjects showing ±, + or ++ reactivity 8th: 8th patch; for Number of subjects showing ±, + or ++ reactivity 9th: 9th patch; for Average reactivity: less than 3 = safe
Description: HRIPT (human repeated insult patch test) was performed to evaluate the cumulative skin irritation of quercetin 3-O-[3-O″-(E)-p-coumaroyl][β-D-glucopyranosyl-(1→3)-O-α-L-rhamnopyranosyl-(1→6)-O-β-D-glucopyranoside] and quercetin 3-O-[3-O″-(E)-p-coumaroyl][α-L-rhamnopyranosyl-(1→6)-O-β-D-glucopyranoside] and determine the range of concentration applicable to the skin. Specifically, 15 healthy adult subjects were randomly selected, and 20 μl of a test composition (composition for the skin including an emulsifier, a stabilizer, purified water, etc. in addition to each of the above compounds) containing 0.5% by weight, 1% by weight or 3% by weight of each of the compounds was dropped into each chamber (IQ chamber, Epitest Ltd, Finland) The patch was applied to the upper right side of the back of the subject, and after 24 hours from the application, it was replaced with a new patch. In this way, a total of 9 patches were applied, 3 times a week for 3 weeks. The skin reaction was checked before and after application of each patch. The skin reaction was checked until after 48 hours from the removal of the final patch, and the average reactivity was calculated. The skin reaction was evaluated according to the criteria of the International Contact Dermatitis Research Group (ICDRG). In the above table, “novel substance 31” denotes quercetin 3-O-[3-O″-(E)-p-coumaroyl][β-D-glucopyranosyl-(1→3)-O-α-L-rhamnopyranosyl-(1→6)-O-β-D-glucopyranoside], and “novel substance 32” denotes quercetin 3-O-[3-O″-(E)-p-coumaroyl][α-L-rhamnopyranosyl-(1→6)-O-β-D-glucopyranoside.

[1] = 0.5% by weight, line 1 of 3 (±)
[2] = 0.5% by weight, line 2 of 3 (+)
[3] = 0.5% by weight, line 3 of 3 (++)

CC1OC(OCC2OC(Oc3c(-c4ccc(O)c(O)c4)oc4cc(O)cc(O)c4c3=O)C(O)C(OC(=O)/C=C/c3ccc(O)cc3)C2O)C(O)C(O)C1O [Novel substance 32, quercetin 3-O-[3-O″-(E)-p-coumaroyl][α-L-rhamnopyranosyl-(1→6)-O-β-D-glucopyranoside]]
Number of subjects showing ±, + or ++ reactivity 1st [1]: 0 number of persons
Number of subjects showing ±, + or ++ reactivity 1st [2]: 0 number of persons
Number of subjects showing ±, + or ++ reactivity 1st [3]: 0 number of persons
Number of subjects showing ±, + or ++ reactivity 2nd [1]: 0 number of persons
Number of subjects showing ±, + or ++ reactivity 2nd [2]: 0 number of persons
Number of subjects showing ±, + or ++ reactivity 2nd [3]: 0 number of persons
Number of subjects showing ±, + or ++ reactivity 3rd [1]: 0 number of persons
Number of subjects showing ±, + or ++ reactivity 3rd [2]: 0 number of persons
Number of subjects showing ±, + or ++ reactivity 3rd [3]: 0 number of persons
Number of subjects showing ±, + or ++ reactivity 4th [1]: 0 number of persons
Number of subjects showing ±, + or ++ reactivity 4th [2]: 0 number of persons
Number of subjects showing ±, + or ++ reactivity 4th [3]: 0 number of persons
Number of subjects showing ±, + or ++ reactivity 5th [1]: 0 number of persons
Number of subjects showing ±, + or ++ reactivity 5th [2]: 0 number of persons
Number of subjects showing ±, + or ++ reactivity 5th [3]: 0 number of persons
Number of subjects showing ±, + or ++ reactivity 6th [1]: 0 number of persons
Number of subjects showing ±, + or ++ reactivity 6th [2]: 0 number of persons
Number of subjects showing ±, + or ++ reactivity 6th [3]: 0 number of persons
Number of subjects showing ±, + or ++ reactivity 7th [1]: 0 number of persons
Number of subjects showing ±, + or ++ reactivity 7th [2]: 0 number of persons
Number of subjects showing ±, + or ++ reactivity 7th [3]: 0 number of persons
Number of subjects showing ±, + or ++ reactivity 8th [1]: 0 number of persons
Number of subjects showing ±, + or ++ reactivity 8th [2]: 0 number of persons
Number of subjects showing ±, + or ++ reactivity 8th [3]: 0 number of persons
Number of subjects showing ±, + or ++ reactivity 9th [1]: 0 number of persons
Number of subjects showing ±, + or ++ reactivity 9th [2]: 0 number of persons
Number of subjects showing ±, + or ++ reactivity 9th [3]: 0 number of persons
Average reactivity (0.5% by weight): 0
Number of subjects showing ±, + or ++ reactivity 1st (1% by weight, line 1 of 3 (±)): 0 number of persons
Number of subjects showing ±, + or ++ reactivity 1st (1% by weight, line 2 of 3 (+)): 0 number of persons
Number of subjects showing ±, + or ++ reactivity 1st (1% by weight, line 3 of 3 (++)): 0 number of persons
Number of subjects showing ±, + or ++ reactivity 2nd (1% by weight, line 1 of 3 (±)): 0 number of persons
Number of subjects showing ±, + or ++ reactivity 2nd (1% by weight, line 2 of 3 (+)): 0 number of persons
Number of subjects showing ±, + or ++ reactivity 2nd (1% by weight, line 3 of 3 (++)): 0 number of persons
Number of subjects showing ±, + or ++ reactivity 3rd (1% by weight, line 1 of 3 (±)): 0 number of persons
Number of subjects showing ±, + or ++ reactivity 3rd (1% by weight, line 2 of 3 (+)): 0 number of persons
Number of subjects showing ±, + or ++ reactivity 3rd (1% by weight, line 3 of 3 (++)): 0 number of persons
Number of subjects showing ±, + or ++ reactivity 4th (1% by weight, line 1 of 3 (±)): 0 number of persons
Number of subjects showing ±, + or ++ reactivity 4th (1% by weight, line 2 of 3 (+)): 0 number of persons
Number of subjects showing ±, + or ++ reactivity 4th (1% by weight, line 3 of 3 (++)): 0 number of persons
Number of subjects showing ±, + or ++ reactivity 5th (1% by weight, line 1 of 3 (±)): 0 number of persons
Number of subjects showing ±, + or ++ reactivity 5th (1% by weight, line 2 of 3 (+)): 0 number of persons
Number of subjects showing ±, + or ++ reactivity 5th (1% by weight, line 3 of 3 (++)): 0 number of persons
Number of subjects showing ±, + or ++ reactivity 6th (1% by weight, line 1 of 3 (±)): 0 number of persons
Number of subjects showing ±, + or ++ reactivity 6th (1% by weight, line 2 of 3 (+)): 0 number of persons
Number of subjects showing ±, + or ++ reactivity 6th (1% by weight, line 3 of 3 (++)): 0 number of persons
Number of subjects showing ±, + or ++ reactivity 7th (1% by weight, line 1 of 3 (±)): 0 number of persons
Number of subjects showing ±, + or ++ reactivity 7th (1% by weight, line 2 of 3 (+)): 0 number of persons
Number of subjects showing ±, + or ++ reactivity 7th (1% by weight, line 3 of 3 (++)): 0 number of persons
Number of subjects showing ±, + or ++ reactivity 8th (1% by weight, line 1 of 3 (±)): 0 number of persons
Number of subjects showing ±, + or ++ reactivity 8th (1% by weight, line 2 of 3 (+)): 0 number of persons
Number of subjects showing ±, + or ++ reactivity 8th (1% by weight, line 3 of 3 (++)): 0 number of persons
Number of subjects showing ±, + or ++ reactivity 9th (1% by weight, line 1 of 3 (±)): 0 number of persons
Number of subjects showing ±, + or ++ reactivity 9th (1% by weight, line 2 of 3 (+)): 0 number of persons
Number of subjects showing ±, + or ++ reactivity 9th (1% by weight, line 3 of 3 (++)): 0 number of persons
Average reactivity (1% by weight): 0
Number of subjects showing ±, + or ++ reactivity 1st (3% by weight, line 1 of 3 (±)): 0 number of persons
Number of subjects showing ±, + or ++ reactivity 1st (3% by weight, line 2 of 3 (+)): 0 number of persons
Number of subjects showing ±, + or ++ reactivity 1st (3% by weight, line 3 of 3 (++)): 0 number of persons
Number of subjects showing ±, + or ++ reactivity 2nd (3% by weight, line 1 of 3 (±)): 0 number of persons
Number of subjects showing ±, + or ++ reactivity 2nd (3% by weight, line 2 of 3 (+)): 0 number of persons
Number of subjects showing ±, + or ++ reactivity 2nd (3% by weight, line 3 of 3 (++)): 0 number of persons
Number of subjects showing ±, + or ++ reactivity 3rd (3% by weight, line 1 of 3 (±)): 0 number of persons
Number of subjects showing ±, + or ++ reactivity 3rd (3% by weight, line 2 of 3 (+)): 0 number of persons
Number of subjects showing ±, + or ++ reactivity 3rd (3% by weight, line 3 of 3 (++)): 0 number of persons
Number of subjects showing ±, + or ++ reactivity 4th (3% by weight, line 1 of 3 (±)): 0 number of persons
Number of subjects showing ±, + or ++ reactivity 4th (3% by weight, line 2 of 3 (+)): 0 number of persons
Number of subjects showing ±, + or ++ reactivity 4th (3% by weight, line 3 of 3 (++)): 0 number of persons
Number of subjects showing ±, + or ++ reactivity 5th (3% by weight, line 1 of 3 (±)): 0 number of persons
Number of subjects showing ±, + or ++ reactivity 5th (3% by weight, line 2 of 3 (+)): 0 number of persons
Number of subjects showing ±, + or ++ reactivity 5th (3% by weight, line 3 of 3 (++)): 0 number of persons
Number of subjects showing ±, + or ++ reactivity 6th (3% by weight, line 1 of 3 (±)): 0 number of persons
Number of subjects showing ±, + or ++ reactivity 6th (3% by weight, line 2 of 3 (+)): 0 number of persons
Number of subjects showing ±, + or ++ reactivity 6th (3% by weight, line 3 of 3 (++)): 0 number of persons
Number of subjects showing ±, + or ++ reactivity 7th (3% by weight, line 1 of 3 (±)): 0 number of persons
Number of subjects showing ±, + or ++ reactivity 7th (3% by weight, line 2 of 3 (+)): 0 number of persons
Number of subjects showing ±, + or ++ reactivity 7th (3% by weight, line 3 of 3 (++)): 0 number of persons
Number of subjects showing ±, + or ++ reactivity 8th (3% by weight, line 1 of 3 (±)): 0 number of persons
Number of subjects showing ±, + or ++ reactivity 8th (3% by weight, line 2 of 3 (+)): 0 number of persons
Number of subjects showing ±, + or ++ reactivity 8th (3% by weight, line 3 of 3 (++)): 0 number of persons
Number of subjects showing ±, + or ++ reactivity 9th (3% by weight, line 1 of 3 (±)): 0 number of persons
Number of subjects showing ±, + or ++ reactivity 9th (3% by weight, line 2 of 3 (+)): 0 number of persons
Number of subjects showing ±, + or ++ reactivity 9th (3% by weight, line 3 of 3 (++)): 0 number of persons
Average reactivity (3% by weight): 0
skin reactivity (ICDRG criteria) (within the content range 0.5, 1, 3% by weight, 9 patches, 15 subjects): −
